According to PubChem BioAssay (NCI):
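Five concentrations, 48 hours, 96-well plates. The concentration for full growth arrest is given as TGI.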

Legend:
Assay in all cases: NCI tumour cell line growth inhibition, 48 h
UACC-62 melanoma = system: UACC-62 melanoma
OVCAR-4 ovarian = system: OVCAR-4 ovarian
MCF7 breast = system: MCF7 breast
MDA-MB-231 breast = system: MDA-MB-231 breast
SW-620 colon = system: SW-620 colon
LOX IMVI melanoma = system: LOX IMVI melanoma
M14 melanoma = system: M14 melanoma
HCT-116 colon = system: HCT-116 colon
TK-10 renal = system: TK-10 renal
CAKI-1 renal = system: CAKI-1 renal
MDA-MB-435 = system: MDA-MB-435
SK-OV-3 ovarian = system: SK-OV-3 ovarian
HOP-62 NSCLC = system: HOP-62 NSCLC
UO-31 renal = system: UO-31 renal
MDA-N = system: MDA-N
MOLT-4 leukemia = system: MOLT-4 leukemia
SK-MEL-2 melanoma = system: SK-MEL-2 melanoma
MALME-3M melanoma = system: MALME-3M melanoma
UACC-257 melanoma = system: UACC-257 melanoma
SK-MEL-28 melanoma = system: SK-MEL-28 melanoma
OVCAR-8 ovarian = system: OVCAR-8 ovarian
SNB-19 CNS = system: SNB-19 CNS
HT29 colon = system: HT29 colon
A498 renal = system: A498 renal
HOP-92 NSCLC = system: HOP-92 NSCLC
NCI-H522 lung = system: NCI-H522 lung
SF-539 CNS = system: SF-539 CNS
NCI-H460 lung = system: NCI-H460 lung
HCC-2998 colon = system: HCC-2998 colon
KM12 colon = system: KM12 colon
NCI/ADR-RES ovarian = system: NCI/ADR-RES ovarian
CCRF-CEM leukemia = system: CCRF-CEM leukemia
SF-295 CNS = system: SF-295 CNS
EKVX NSCLC = system: EKVX NSCLC
SNB-75 CNS = system: SNB-75 CNS
NCI-H23 lung = system: NCI-H23 lung
ACHN renal = system: ACHN renal
BT-549 breast = system: BT-549 breast
HCT-15 colon = system: HCT-15 colon
T-47D breast = system: T-47D breast
HL-60(TB) leukemia = system: HL-60(TB) leukemia
SF-268 CNS = system: SF-268 CNS
RXF 393 renal = system: RXF 393 renal
RPMI-8226 leukemia = system: RPMI-8226 leukemia
K-562 leukemia = system: K-562 leukemia
COLO 205 colon = system: COLO 205 colon
NCI-H226 lung = system: NCI-H226 lung
OVCAR-3 ovarian = system: OVCAR-3 ovarian
HS 578T breast = system: HS 578T breast
IGROV1 ovarian = system: IGROV1 ovarian
U251 CNS = system: U251 CNS
786-0 renal = system: 786-0 renal
OVCAR-5 ovarian = system: OVCAR-5 ovarian
SK-MEL-5 melanoma = system: SK-MEL-5 melanoma
SR leukemia = system: SR leukemia
PC-3 prostate = system: PC-3 prostate
A549 NSCLC = system: A549 NSCLC
SN12C renal = system: SN12C renal

CN(/N=C/c1ccccn1)C1=NCCCN1
TGI (UACC-62 melanoma): > 100 µM | TGI (OVCAR-4 ovarian): > 100 µM | TGI (MCF7 breast): > 100 µM | TGI (MDA-MB-231 breast): > 100 µM | TGI (SW-620 colon): > 100 µM | TGI (LOX IMVI melanoma): > 100 µM | TGI (M14 melanoma): > 100 µM | TGI (HCT-116 colon): > 100 µM | TGI (TK-10 renal): > 100 µM | TGI (CAKI-1 renal): > 100 µM | TGI (MDA-MB-435): > 100 µM | TGI (SK-OV-3 ovarian): > 100 µM | TGI (HOP-62 NSCLC): > 100 µM | TGI (UO-31 renal): > 100 µM | TGI (MDA-N): > 100 µM | TGI (MOLT-4 leukemia): > 100 µM | TGI (SK-MEL-2 melanoma): > 100 µM | TGI (MALME-3M melanoma): > 100 µM | TGI (UACC-257 melanoma): > 100 µM | TGI (SK-MEL-28 melanoma): > 100 µM | TGI (OVCAR-8 ovarian): > 100 µM | TGI (SNB-19 CNS): > 100 µM | TGI (HT29 colon): > 100 µM | TGI (A498 renal): > 100 µM | TGI (HOP-92 NSCLC): > 100 µM | TGI (NCI-H522 lung): > 100 µM | TGI (SF-539 CNS): > 100 µM | TGI (NCI-H460 lung): > 100 µM | TGI (HCC-2998 colon): > 100 µM | TGI (KM12 colon): > 100 µM | TGI (NCI/ADR-RES ovarian): > 100 µM | TGI (CCRF-CEM leukemia): > 100 µM | TGI (SF-295 CNS): > 100 µM | TGI (EKVX NSCLC): > 100 µM | TGI (SNB-75 CNS): > 100 µM | TGI (NCI-H23 lung): > 100 µM | TGI (ACHN renal): > 100 µM | TGI (BT-549 breast): > 100 µM | TGI (HCT-15 colon): > 100 µM | TGI (T-47D breast): > 100 µM | TGI (HL-60(TB) leukemia): > 100 µM | TGI (SF-268 CNS): > 100 µM | TGI (RXF 393 renal): > 100 µM | TGI (RPMI-8226 leukemia): > 100 µM | TGI (K-562 leukemia): > 100 µM | TGI (COLO 205 colon): > 100 µM | TGI (NCI-H226 lung): > 100 µM | TGI (OVCAR-3 ovarian): > 100 µM | TGI (HS 578T breast): > 100 µM | TGI (IGROV1 ovarian): > 100 µM | TGI (U251 CNS): > 100 µM | TGI (786-0 renal): > 100 µM | TGI (OVCAR-5 ovarian): > 100 µM | TGI (SK-MEL-5 melanoma): > 100 µM | TGI (SR leukemia): > 100 µM | TGI (PC-3 prostate): > 100 µM | TGI (A549 NSCLC): > 100 µM

COc1ccc(N2C(=O)/C(=C\c3ccccc3)SC2c2cc(OC)c(OC)c(OC)c2)cc1 (configuration not stated)
TGI (UACC-62 melanoma): > 100 µM | TGI (OVCAR-4 ovarian): > 100 µM | TGI (MCF7 breast): > 100 µM | TGI (MDA-MB-231 breast): > 100 µM | TGI (LOX IMVI melanoma): > 100 µM | TGI (M14 melanoma): > 100 µM | TGI (HCT-116 colon): > 100 µM | TGI (TK-10 renal): > 100 µM | TGI (CAKI-1 renal): > 100 µM | TGI (MDA-MB-435): 79.7 µM | TGI (SK-OV-3 ovarian): > 100 µM | TGI (HOP-62 NSCLC): > 100 µM | TGI (UO-31 renal): > 100 µM | TGI (MDA-N): 44.8 µM | TGI (MOLT-4 leukemia): > 100 µM | TGI (SK-MEL-2 melanoma): 75.9 µM | TGI (MALME-3M melanoma): > 100 µM | TGI (UACC-257 melanoma): > 100 µM | TGI (SK-MEL-28 melanoma): > 100 µM | TGI (OVCAR-8 ovarian): > 100 µM | TGI (SNB-19 CNS): > 100 µM | TGI (HT29 colon): > 100 µM | TGI (A498 renal): > 100 µM | TGI (HOP-92 NSCLC): > 100 µM | TGI (NCI-H522 lung): > 100 µM | TGI (HCC-2998 colon): > 100 µM | TGI (KM12 colon): > 100 µM | TGI (NCI/ADR-RES ovarian): > 100 µM | TGI (CCRF-CEM leukemia): > 100 µM | TGI (SF-295 CNS): > 100 µM | TGI (EKVX NSCLC): > 100 µM | TGI (SNB-75 CNS): 75.7 µM | TGI (NCI-H23 lung): > 100 µM | TGI (ACHN renal): > 100 µM | TGI (BT-549 breast): > 100 µM | TGI (HCT-15 colon): > 100 µM | TGI (T-47D breast): > 100 µM | TGI (SF-268 CNS): > 100 µM | TGI (RXF 393 renal): > 100 µM | TGI (SN12C renal): > 100 µM | TGI (K-562 leukemia): > 100 µM | TGI (COLO 205 colon): > 100 µM | TGI (NCI-H226 lung): > 100 µM | TGI (HS 578T breast): > 100 µM | TGI (U251 CNS): > 100 µM | TGI (OVCAR-5 ovarian): > 100 µM | TGI (SK-MEL-5 melanoma): > 100 µM | TGI (SR leukemia): > 100 µM | TGI (PC-3 prostate): > 100 µM | TGI (A549 NSCLC): > 100 µM
